Laboratory results taken from US20110135671A1, “PURINE DERIVATIVES FOR USE IN THE TREATMENT OF ALLERGIC, INFLAMMATORY AND INFECTIOUS DISEASES” (GLAXOSMITHKLINE LLC, priority 2008, published 2011).
Counter-ions that a name gives are not always drawn.

What was measured:
Type in all cases: cell-based
Interferon-α [1] = assay: Induction of Interferon-α using fresh human PBMCs; details: PBMC, 24 hr, relative to 2 μM resiquimod control, read-out: mean pEC50 for induction of IFN-α (converted)
Method: (§1) Assay for the Induction of Interferon-α and TNF-α Using Fresh Human Peripheral Blood Mononuclear Cells (PBMCs)
(§2) Compounds were dissolved and serially diluted in DMSO to give 100× the required concentration range using a Biomek 2000. 1 ul of test compound was transferred into 96-well tissue culture plates using a Biomek FX. Each compound was assayed in duplicate for each donor. Each plate contained a dilution series of the TLR7/8 agonist resiquimod as standard and Column 11 contained 1 μl of 200 μM resiquimod (giving a 2 μM final concentration, used to define the approximate maximal response to resiquimod).
(§3) Blood samples from two human donors were collected into sodium heparin (10 U/ml). 25 ml volumes of whole blood were overlaid onto 15 mls Histopaque in Leucosep tubes which were centrifuged at 800 g for 20 min and the band at the plasma/histopaque interface carefully removed. The collected cells were centrifuged at 2500 rpm for 10 min and the pellet resuspended in 10 ml of media (RPMI 1640 (Low endotoxin) supplemented with 10% v/v foetal calf serum (FCS, low endotoxin) 100 U/ml penicillin G, 100 μg/ml streptomycin, 10 mM L-glutamine and 1× non-essential amino acids). A 1:20 dilution of the cells was prepared using trypan blue & the cells counted using a haemocytometer. The PBMCs were diluted to give a final concentration of 2×10^6/ml and 100 ul of this cells suspension was added to wells containing 1 μl of diluted test compound.
(§4) The cell preparations were incubated for 24 hr (37° C., 95% air, 5% CO2) after which a sample of the supernatant was removed using the Biomek FX and assayed for both IFN-α and TNF-α using the MSD (Mesoscale Discovery) electrochemiluminescence assay platform. The IFN-α assay was carried out similarly to that described above. The TNF-α assay was carried out as per kit instructions (Cat No K111 BHB).
(§5) Cytokine released was expressed as a percentage of the 2 μM resiquimod control (column 11). This percentage was plotted against compound concentration and the pEC50 for the response determined by non-linear least squares curve fitting. For the IFN-α responses generally a 4 parameter logistic model was selected. For the TNF responses where a clear maximum response was obtained (i.e. a well defined plateau in the response was observed) then a 4 parameter model was generally used. If the upper asymptote of the curve wasn't well defined then the curve fitting was generally constrained to a maximal response of 100% (i.e., to the response to 2 μM resiquimod) or to the response of the highest concentration tested if this was greater than the resiquimod response. Some curves were bell shaped for one or both cytokines and the cytokine data on the down slope of the bell shaped response (i.e. concentrations above those giving the maximal response) were generally excluded from the fit, usually with the exception of the concentration immediately above the peak response. Curve fitting thus concentrated on the up slope of the dose response curve.

TNF-α = assay: Induction of TNF-α using fresh human PBMCs; details: PBMC, 24 hr, relative to 2 μM resiquimod control, read-out: mean pEC50 for induction of TNF-α (converted)
Method: as §1, §2, §3, §4, §5

Interferon-α [2] = assay: Induction of Interferon-α using cryopreserved human PBMCs; details: PBMC, 24 h, normalised to 1 uM resiquimod, read-out: mean pEC50 for induction of Interferon-α (converted)
Method: Assay for the Induction of Interferon-α using Cryopreserved Human Peripheral Blood Mononuclear Cells (PBMCs)
Compounds were dissolved in DMSO. Serial 2-fold dilutions with DMSO were prepared and 0.25 μl dispensed into 384-well clear Greiner polypropylene plates.
Blood samples of up to 200 ml were obtained from healthy human donors. Whole blood in 25 ml volumes was overlaid onto 15 ml Ficoll gradients in Leucosep tubes, and centrifuged at 1000 g for 20 min. Cells in the band at the plasma/histopaque interface were carefully removed and washed twice with PBS (centrifuged at 400 g for 5 min to harvest). The final pellet was resuspended in freezing medium (90% Heat-inactivated serum, 10% DMSO) to a cell concentration of 4×10^7 cells/ml. The resuspended cells were then cryopreserved (frozen) using a rate controlled freezer, and stored at −140° C. for up to 4 months.
Incubation and Assay for Interferon-α
Immediately prior to assay, vials of cryopreserved (frozen) PBMCs were thawed rapidly in a water bath at 37° C. A 1:10 dilution of the cells in trypan blue was prepared and counted. The PBMCs were then diluted in growth media [RPMI 1640 containing 10% fetal calf serum (invitrogen), Penicillin+Streptavidin (Gibco cat. # 25030-024, 1:50), L-Glutamine 2 mM, and 1000 units/ml recombinant human IFN-gamma (Preprotech catalogue #300-02)] to a density of 1×10^6 cells/ml, and 50 ul/well dispensed to 384-well clear Greiner polypropylene plates containing 0.25 μl DMSO or test compound in 0.25 μl DMSO. […] Plates were incubated for 24 h at 37° C. in 5% CO2.
A multi-isoform immunoassay was used to quantify IFN-α in PBMC supernatants. Rabbit polyclonal antibody against human IFN-α (catalogue number 31101, Stratech Scientific) was diluted 1:10000 in assay buffer (RPMI 1640 containing 10% fetal calf serum, Invitrogen) and 20 μl was added to each well of an MSD (Meso-Scale Discovery) single small-spot 384-well GAR (goat anti-rabbit antibody coated) plate. The plate was incubated for 1 h at room temperature with vigorous shaking. Following three washes with PBS, 20 μl of cell supernatant were added to each well of the plate. The plate was then incubated for 1 h at room temperature with vigorous shaking. A pair of monoclonal antibodies to IFN-α (catalogue numbers 21100 and 21112, Stratech Scientific) were labelled with sulfo-TAG (MSD), diluted 1:1000 in assay buffer and 20 μl added to each well of the plate. The plate was further incubated for 1 h at room temperature with vigorous shaking. Following three washes with PBS, 30 μl of ×2 T buffer (MSD) was added to each well and the plate was read on an MSD Sector 6000 plate reader.
Data were normalised to internal plate controls of 1 uM resiquimod (n=16) and DMSO (n=16). pEC50 values were derived by 4-parameter curve fit with IRLS in ActivityBase, from 11-point, two-fold serial dilution of test compounds.

| SMILES | EC50 (Interferon-α [1]) | EC50 (TNF-α) | EC50 (Interferon-α [2]) |
| --- | --- | --- | --- |
| CCCCOc1nc(N)c2[nH]c(=O)n(CCCN3CCN(C)CC3)c2n1 [Example 6, 6-Amino-2-(butyloxy)-9-[3-(4-methyl-1-piperazinyl)propyl]-7,9-dihydro-8H-purin-8-one] | < 0.1 µM | > 3.16 µM | < 3.16 µM |
| CCCCOc1nc(N)c2[nH]c(=O)n(CCCCN3CCN(C(C)(C)C)CC3)c2n1 [Example 32, 6-Amino-2-(butyloxy)-9-{4-[4-(1,1-dimethylethyl)-1-piperazinyl]butyl}-7,9-dihydro-8H-purin-8-one] | < 0.01 µM | > 1 µM | < 3.16 µM |
| CCCCOc1nc(N)c2[nH]c(=O)n(CCCCN3CCN(C)CC3)c2n1 [Example 26, 6-Amino-2-(butyloxy)-9-[4-(4-methyl-1-piperazinyl)butyl]-7,9-dihydro-8H-burin-8-one] | < 0.1 µM | > 3.16 µM | < 3.16 µM |
| CCCCOc1nc(N)c2[nH]c(=O)n(CCCCN3CCN(C(C)C)CC3)c2n1 [Example 29, 6-Amino-2-(butyloxy)-9-{4-[4-(1-methylethyl)-1-piperazinyl]butyl}-7,9-dihydro-8H-purin-8-one] | < 0.01 µM | > 1 µM | < 3.16 µM |
| CCCCOc1nc(N)c2[nH]c(=O)n(CCCCN3CCN(CC)CC3)c2n1 [Example 27, 6-Amino-2-(butyloxy)-9-[4-(4-ethyl-1-piperazinyl)butyl]-7,9-dihydro-8H-burin-8-one] | < 0.01 µM | > 1 µM | < 3.16 µM |
| CCCCOc1nc(N)c2[nH]c(=O)n(CCN3CCNCC3)c2n1 [Example 1, 6-Amino-2-(butyloxy)-9-[2-(1-piperazinyl)ethyl]-7,9-dihydro-8H-purin-8-one dihydrochloride salt] | < 0.1 µM | > 3.16 µM | < 3.16 µM |
| CCCCOc1nc(N)c2[nH]c(=O)n(CCCCCCN3CCNCC3)c2n1 [Example 54, 6-Amino-2-(butyloxy)-9-[6-(1-piperazinyl)hexyl]-7,9-dihydro-8H-purin-8-one] | < 0.01 µM | > 1 µM | < 3.16 µM |
| CCCCOc1nc(N)c2[nH]c(=O)n(CCCCCCN3CCN(C(C)(C)C)CC3)c2n1 [Example 57, 6-Amino-2-(butyloxy)-9-{6-[4-(1,1-dimethylethyl)-1-piperazinyl]hexyl}-7,9-dihydro-8H-purin-8-one] | < 0.001 µM | > 1 µM | < 3.16 µM |
| CCCCOc1nc(N)c2[nH]c(=O)n(CCCCCN3CCN(C4CCCCC4)CC3)c2n1 [Example 64, 6-Amino-2-(butyloxy)-9-[5-(4-cyclohexyl-1-piperazinyl)pentyl]-7,9-dihydro-8H-purin-8-one] | – | – | < 3.16 µM |
| CCCCCN1CCN(CCCCCn2c(=O)[nH]c3c(N)nc(OCCCC)nc32)CC1 [Example 60, 6-Amino-2-(butyloxy)-9-[5-(4-pentyl-1-piperazinyl)pentyl]-7,9-dihydro-8H-purin-8-one] | – | – | < 3.16 µM |
| CCCCOc1nc(N)c2[nH]c(=O)n(CCCCN3CCN(C4CCCC4)CC3)c2n1 [Example 34, 6-Amino-2-(butyloxy)-9-[4-(4-cyclopentyl-1-piperazinyl)butyl]-7,9-dihydro-8H-purin-8-one] | – | – | < 3.16 µM |
| CCCCOc1nc(N)c2[nH]c(=O)n(CCCCN3CCN(CC(C)C)CC3)c2n1 [Example 31, 6-Amino-2-(butyloxy)-9-{4-[4-(2-methylpropyl)-1-piperazinyl]butyl}-7,9-dihydro-8H-purin-8-one] | – | – | < 3.16 µM |
| CCCCNc1nc(N)c2[nH]c(=O)n(CCCCN3CCN(CC4CC4)CC3)c2n1 [Example 42, 6-Amino-2-(butylamino)-9-{4-[4-(cyclopropylmethyl)-1-piperazinyl]butyl}-7,9-dihydro-8H-purin-8-one] | – | – | < 3.16 µM |
| CC(C)N1CCN(CCCCn2c(=O)[nH]c3c(N)nc(OC4CCCCC4)nc32)CC1 [Example 73, 6-Amino-2-(cyclohexyloxy)-9-{4-[4-(1-methylethyl)-1-piperazinyl]butyl}-7,9-dihydro-8H-purin-8-one] | – | – | < 3.16 µM |
| CCCCOc1nc(N)c2[nH]c(=O)n(CCCN3CCN(CC4CC4)CC3)c2n1 [Example 13, 6-Amino-2-(butyloxy)-9-{3-[4-(cyclopropylmethyl)-1-piperazinyl]propyl}-7,9-dihydro-8H-purin-8-one] | – | – | < 3.16 µM |
| CCCCOc1nc(N)c2[nH]c(=O)n(CCCCCN3CCN(C(C)(C)C)CC3)c2n1 [Example 61, 6-Amino-2-(butyloxy)-9-{5-[4-(1,1-dimethylethyl)-1-piperazinyl]pentyl}-7,9-dihydro-8H-purin-8-one] | – | – | < 3.16 µM |
| CCCCOc1nc(N)c2[nH]c(=O)n(CCCCCN3CCN(CCCC)CC3)c2n1 [Example 59, 6-Amino-2-(butyloxy)-9-[5-(4-butyl-1-piperazinyl)pentyl]-7,9-dihydro-8H-purin-8-one] | – | – | < 3.16 µM |
| CCCCOc1nc(N)c2[nH]c(=O)n(CCCCN3CCN(CC4CC4)CC3)c2n1 [Example 33, 6-Amino-2-(butyloxy)-9-{4-[4-(cyclopropylmethyl)-1-piperazinyl]butyl}-7,9-dihydro-8H-purin-8-one] | – | – | < 3.16 µM |
| CC(C)N1CCN(CCCCn2c(=O)[nH]c3c(N)nc(OC4CCCC4)nc32)CC1 [Example 72, 6-Amino-2-(cyclopentyloxy)-9-{4-[4-(1-methylethyl)-1-piperazinyl]butyl}-7,9-dihydro-8H-purin-8-one] | – | – | < 3.16 µM |
| CCCCNc1nc(N)c2[nH]c(=O)n(CCCN3CCN(CC)CC3)c2n1 [Example 17, 6-Amino-2-(butylamino)-9-[3-(4-ethyl-1-piperazinyl)propyl]-7,9-dihydro-8H-purin-8-one] | – | – | < 3.16 µM |
| CCCCOc1nc(N)c2[nH]c(=O)n(CCCCCN3CCNCC3)c2n1 [Example 45, 6-Amino-2-(butyloxy)-9-[5-(1-piperazinyl)pentyl]-7,9-dihydro-8H-purin-8-one] | – | – | < 3.16 µM |
| CCCCNc1nc(N)c2[nH]c(=O)n(CCCN3CCN(C4CCCC4)CC3)c2n1 [Example 24, 6-Amino-2-(butylamino)-9-[3-(4-cyclopentyl-1-piperazinyl)propyl]-7,9-dihydro-8H-purin-8-one] | – | – | < 3.16 µM |
